What follows are molecules tested against T1, human ADRA2B receptor (Homo sapiens, UniProt P18089) (assay: ADRA2B arrestin agonist assay). Conditions: CHO-K1 cells stably expressing human ADRA2B; read-out: Beta-Arrestin - Human Alpha2B EC50.
T1 construct: expressed in transfected cells
T1 sequence (P18089 1-450): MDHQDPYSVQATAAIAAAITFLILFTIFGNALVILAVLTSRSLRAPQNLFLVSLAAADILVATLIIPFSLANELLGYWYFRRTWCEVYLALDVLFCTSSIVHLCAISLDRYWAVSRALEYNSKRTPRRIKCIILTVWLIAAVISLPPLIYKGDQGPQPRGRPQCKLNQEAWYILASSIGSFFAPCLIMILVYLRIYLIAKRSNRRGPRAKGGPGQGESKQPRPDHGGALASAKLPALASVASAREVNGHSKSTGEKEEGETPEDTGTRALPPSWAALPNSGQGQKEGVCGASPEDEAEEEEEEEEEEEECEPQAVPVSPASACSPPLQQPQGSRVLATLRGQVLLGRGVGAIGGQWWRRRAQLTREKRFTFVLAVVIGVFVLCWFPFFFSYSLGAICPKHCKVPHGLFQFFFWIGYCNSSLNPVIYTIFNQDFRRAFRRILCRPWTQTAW
Type: cell-based
In short: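 CHO-K1 cells stably expressing human ADRA2B, thawed from frozen stock and plated overnight, were treated with agonist for 2 h at 37 °C. Arrestin recruitment detected by luminescence after 2 h with detection reagents at room temperature.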

For `Cn1nccc1CC(c1c[nH]cn1)c1cccc2ccn(C)c12` (centres unmarked) [Compound 267, 5-[2-(4-imidazolyl)-2-(1-methyl-7-indolyl)ethyl]-1-methylpyrazole], which EC50 is on record?
Its EC50 is 50 to 500 nM.

How did the EC50 turn out when `COCc1nccc(CC(c2c[nH]cn2)c2cccc3c2OCCO3)n1` (centres unmarked) [Compound 356, 4-[2-(2,3-dihydro-1,4-benzodioxin-5-yl)-2-(4-imidazolyl)ethyl]-2-(methoxymethyl)pyrimidine] was run?
Its EC50 is 10 to 50 nM.

How did the EC50 turn out when `Cc1cccc(C(Cc2cnsc2)c2c[nH]cn2)c1C` (centres unmarked) [Compound 391, 4-[2-(4-imidazolyl)-2-(2,3-xylyl)ethyl]isothiazole] was run?
Its EC50 is < 10 nM.

How did the EC50 turn out when `Cc1cccc([C@H](Cc2cn(C)nn2)c2c[nH]cn2)c1F` [Compound 250, 4-[(S)-2-(2-fluoro-3-tolyl)-2-(4-imidazolyl)ethyl]-1-methyl-1H-1,2,3-triazole] was run?
Its EC50 is > 500 nM.

Which EC50 does the source give for `Cc1cccc(C(Cc2cnc3n[nH]cc3c2)c2c[nH]cn2)c1C` (centres unmarked) [Compound 287, 5-[2-(4-imidazolyl)-2-(2,3-xylyl)ethyl]-2H-1,2,7-triazaindene-formic acid (1/1)] here?
The EC50 was < 10 nM.

`COCc1cccc(CC(c2c[nH]cn2)c2cccc(C)c2C)n1` (centres unmarked) [Compound 294, 4-{2-[6-(methoxymethyl)-2-pyridyl]-1-(2,3-xylyl)ethyl}imidazole] was tested. Which EC50 did it give?
The EC50 was < 10 nM.

With `COCc1nccc(CC(c2c[nH]cn2)c2cccc(C)c2C)n1` (centres unmarked) [Compound 176, 4-[2-(4-imidazolyl)-2-(2,3-xylyl)ethyl]-2-(methoxymethyl) pyrimidine] as the molecule, how does the EC50 read?
Its EC50 is < 10 nM.

Which EC50 does the source give for `CCOc1c(F)cccc1C(Cc1ccnc(OC)n1)c1c[nH]cn1` (centres unmarked) [Compound 197, 4-[2-(2-ethoxy-3-fluorophenyl)-2-(4-imidazolyl)ethyl]-2-methoxypyrimidine] here?
The EC50 was 50 to 500 nM.

For `Cc1cccc(C(Cc2ccnc(COC3CC3)n2)c2c[nH]cn2)c1C` (centres unmarked) [Compound 208, 2-(cyclopropoxymethyl)-4-[2-(4-imidazolyl) 2-(2,3-xylyl)ethyl]pyrimidine], which EC50 is on record?
The EC50 was < 10 nM.

For `Cc1nccc(CC(c2ccc3cccnc3c2)c2c[nH]cn2)n1` (centres unmarked) [Compound 161, 4-[2-(4-imidazolyl)-2-(7-quinolyl)ethyl]-2-methylpyrimidine], which EC50 is on record?
The EC50 was > 500 nM.

Which EC50 does the source give for `Cc1nc(C[C@@H](c2c[nH]cn2)c2cccc(C)c2C)co1` [Compound 373, 4-[(R)-2-(4-imidazolyl)-2-(2,3-xylyl)ethyl]-2-methyl-1,3-oxazole] here?
The EC50 was 10 to 50 nM.

How did the EC50 turn out when `Cc1cccc(C(Cc2ccc(C(=O)N(C)C)nc2)c2c[nH]cn2)c1C` (centres unmarked) [Compound 311, N,N-dimethyl-5-[2-(4-imidazolyl)-2-(2,3-xylyl)ethyl]-2-pyridinecarboxamide] was run?
Its EC50 is < 10 nM.

How did the EC50 turn out when `Cn1ncc2c(C(Cc3cccc(CF)n3)c3c[nH]cn3)cccc21` (centres unmarked) [Compound 303, 4-{2-[6-(fluoromethyl)-2-pyridyl]-1-(4-imidazolyl)ethyl}-1-methyl-1H-indazole] was run?
Its EC50 is 10 to 50 nM.

How did the EC50 turn out when `Cc1cccc([C@@H](Cc2cnco2)c2c[nH]cn2)c1F` [Compound 369, 5-[(R)-2-(2-fluoro-3-tolyl)-2-(4-imidazolyl)ethyl]-1,3-oxazole] was run?
The EC50 was > 500 nM.

How did the EC50 turn out when `Cc1cc(CC(c2c[nH]cn2)c2cccc(Cl)c2F)ncn1` (centres unmarked) [Compound 163, 4-[2-(3-chloro-2-fluorophenyl)-2-(4-imidazolyl)ethyl]-6-methylpyrimidine] was run?
Its EC50 is 50 to 500 nM.

For `Cc1cccc([C@H](Cc2cc[nH]n2)c2c[nH]cn2)c1C` [Compound 235, 3-[(S)-2-(4-imidazolyl)-2-(2,3-xylyl)ethyl]pyrazole], which EC50 is on record?
The EC50 was < 10 nM.

How did the EC50 turn out when `COc1nccc(CC(c2c[nH]cn2)c2ccccc2S(=O)(=O)N2CCCC2)n1` (centres unmarked) [Compound 358, 4-{2-(4-imidazolyl)-2-[o-(1-pyrrolidinylsulfonyl)phenyl]ethyl}-2-methoxypyrimidine] was run?
The EC50 was > 500 nM.

How did the EC50 turn out when `COc1c(C)cccc1C(Cc1cocn1)c1c[nH]cn1` (centres unmarked) [Compound 388, 4-[2-(4-imidazolyl)-2-(2-methoxy-3-tolyl)ethyl]-1,3-oxazole-formic acid (1/1)] was run?
The EC50 was > 500 nM.

With `Cc1cccc(C(Cc2cocn2)c2c[nH]cn2)c1Cl` (centres unmarked) [Compound 376, 4-[2-(2-chloro-3-tolyl)-2-(4-imidazolyl)ethyl]-1,3-oxazole] as the molecule, how does the EC50 read?
The EC50 was 10 to 50 nM.

For `Cc1cccc(C(Cc2ccsn2)c2c[nH]cn2)c1C` (centres unmarked) [Compound 245, 3-[2-(4-imidazolyl)-2-(2,3-xylyl)ethyl]isothiazole], which EC50 is on record?
The EC50 was < 10 nM.

For `Cc1cc(CC(c2c[nH]cn2)c2cccc(C)c2C)c(Cl)cn1` (centres unmarked) [Compound 395, 4-[2-(5-chloro-2-methyl-4-pyridyl)-1-(2,3-xylyl)ethyl]imidazole], which EC50 is on record?
Its EC50 is < 10 nM.

With `Cc1cccc(C(Cc2nc(CO)ccc2F)c2c[nH]cn2)c1C` (centres unmarked) [Compound 317, {5-fluoro-6-[2-(4-imidazolyl)-2-(2,3-xylyl)ethyl]-2-pyridyl}methanol] as the molecule, how does the EC50 read?
Its EC50 is < 10 nM.

`[2H]C([2H])([2H])Oc1c(C)cccc1C(Cc1ccnc(C)n1)c1c[nH]cn1` (centres unmarked) [Compound 359, 4-{2-(4-imidazolyl)-2-[2-(^2H3)methoxy-3-tolyl]ethyl}-2-methylpyrimidine] was tested. Which EC50 did it give?
The EC50 was 10 to 50 nM.

`COc1nccc(CC(c2c[nH]cn2)c2ccc(C)c(F)c2F)n1` (centres unmarked) [Compound 189, 4-[2-(2,3-difluoro-4-tolyl)-2-(4-imidazolyl)ethyl]-2-methoxypyrimidine] was tested. Which EC50 did it give?
Its EC50 is > 500 nM.

How did the EC50 turn out when `c1cc2c(c(C(Cc3cccn4ccnc34)c3c[nH]cn3)c1)OCC2` (centres unmarked) [Compound 400, 4-[2-(1,3a-diaza-7-indenyl)-1-(2,3-dihydro-1-benzofuran-7-yl)ethyl]imidazole] was run?
The EC50 was > 500 nM.

`Cc1cccc([C@H](Cc2cn(C)nn2)c2c[nH]cn2)c1C` [Compound 240, 4-[(S)-2-(4-imidazolyl)-2-(2,3-xylyl)ethyl]-1-methyl-1H-1,2,3-triazole] was tested. Which EC50 did it give?
The EC50 was < 10 nM.

With `Cc1cccc([C@@H](Cc2cn[nH]c2)c2c[nH]cn2)c1C` [Compound 232, 4-[(R)-2-(4-imidazolyl)-2-(2,3-xylyl)ethyl]pyrazole] as the molecule, how does the EC50 read?
The EC50 was > 500 nM.

With `Cc1cccc([C@H](Cc2ccnc(C(C)(C)O)n2)c2c[nH]cn2)c1C` [Compound 211, 2-{4-[(S)-2-(4-imidazolyl)-2-(2,3-xylyl)ethyl]-2-pyrimidinyl}-2-propanol] as the molecule, how does the EC50 read?
Its EC50 is > 500 nM.

`COc1nccc(CC(c2c[nH]cn2)c2cccc(F)c2C)n1` (centres unmarked) [Compound 154, 4-[2-(3-fluoro-2-tolyl)-2-(4-imidazolyl)ethyl]-2-methoxypyrimidine] was tested. Which EC50 did it give?
Its EC50 is 10 to 50 nM.

For `Cc1nc(C[C@H](c2c[nH]cn2)c2cccc(C)c2C)c(C)o1` [Compound 380, 4-[(S)-2-(4-imidazolyl)-2-(2,3-xylyl)ethyl]-2,5-dimethyl-1,3-oxazole], which EC50 is on record?
The EC50 was > 500 nM.

For `COc1nccc(CC(c2c[nH]cn2)c2cccc(C)c2F)n1` (centres unmarked) [Compound 155, 4-[2-(2-fluoro-3-tolyl)-2-(4-imidazolyl)ethyl]-2-methoxypyrimidine], which EC50 is on record?
The EC50 was < 10 nM.

With `Cc1nccc(C[C@H](c2c[nH]cn2)c2cccc3c2OCCCO3)n1` [Compound 352, 4-[(S)-2-(3,4-dihydro-2H-1,5-benzodioxepin-6-yl)-2-(4-imidazolyl)ethyl]-2-methylpyrimidine] as the molecule, how does the EC50 read?
The EC50 was > 500 nM.

`Cc1cccc(C(Cc2ccc(C(N)=O)nc2)c2c[nH]cn2)c1C` (centres unmarked) [Compound 288, 5-[2-(4-imidazolyl)-2-(2,3-xylyl)ethyl]-2-pyridinecarboxamide] was tested. Which EC50 did it give?
The EC50 was < 10 nM.

With `c1cc2c(c([C@H](Cc3cc[nH]n3)c3c[nH]cn3)c1)OCC2` [Compound 238, 3-[(S)-2-(2,3-dihydro-1-benzofuran-7-yl)-2-(4-imidazolyl)ethyl]pyrazole] as the molecule, how does the EC50 read?
The EC50 was 10 to 50 nM.

Which EC50 does the source give for `CNc1ccc(CC(c2c[nH]cn2)c2cccc(C)c2C)cn1` (centres unmarked) [Compound 270, N-methyl{5-[2-(4-imidazolyl)-2-(2,3-xylyl)ethyl]-2-pyridyl}amine] here?
The EC50 was < 10 nM.

`Cc1cccc(C(Cc2cnc3cnccn23)c2c[nH]cn2)c1C` (centres unmarked) [Compound 285, 3-[2-(4-imidazolyl)-2-(2,3-xylyl)ethyl]-1,3a,6-triazaindene] was tested. Which EC50 did it give?
The EC50 was 10 to 50 nM.

Which EC50 does the source give for `Cc1nc(C[C@@H](c2c[nH]cn2)c2cccc(C)c2C)c(C)o1` [Compound 379, 4-[(R)-2-(4-imidazolyl)-2-(2,3-xylyl)ethyl]-2,5-dimethyl-1,3-oxazole] here?
Its EC50 is < 10 nM.

Which EC50 does the source give for `Cc1cccc([C@@H](Cc2cn(C)nn2)c2c[nH]cn2)c1C` [Compound 239, 4-[(R)-2-(4-imidazolyl)-2-(2,3-xylyl)ethyl]-1-methyl-1H-1,2,3-triazole] here?
Its EC50 is > 500 nM.

How did the EC50 turn out when `Cc1cccc(CC(c2c[nH]cn2)c2cccc(C)c2F)n1` (centres unmarked) [Compound 259, 4-[1-(2-fluoro-3-tolyl)-2-(6-methyl-2-pyridyl)ethyl]imida-zole] was run?
The EC50 was 10 to 50 nM.

`Cn1nccc1CC(c1c[nH]cn1)c1cccc2c1cnn2C` (centres unmarked) [Compound 269, 4-[1-(4-imidazolyl)-2-(1-methyl-5-pyrazolyl)ethyl]-1-methyl-1H-indazole] was tested. Which EC50 did it give?
The EC50 was 50 to 500 nM.

How did the EC50 turn out when `Cc1cccc([C@@H](Cc2ccnc(C(C)(C)F)n2)c2c[nH]cn2)c1C` [Compound 205, 4-[(R)-2-(4-imidazolyl)-2-(2,3-xylyl)ethyl]-2-(1-fluoro-1-methylethyl)pyrimidine] was run?
Its EC50 is < 10 nM.

With `COc1ccc(CC(c2c[nH]cn2)c2cccc(C)c2C)cn1` (centres unmarked) [Compound 273, 4-[2-(6-methoxy-3-pyridyl)-1-(2,3-xylyl)ethyl]imidazole] as the molecule, how does the EC50 read?
The EC50 was < 10 nM.

`Cc1cccc([C@@H](Cc2cccc(C(C)(C)O)n2)c2c[nH]cn2)c1C` [Compound 304, 2-{6-[(R)-2-(4-imidazolyl) 2-(2,3-xylyl)ethyl]-2-pyridyl}-2-propanol] was tested. Which EC50 did it give?
Its EC50 is < 10 nM.

Which EC50 does the source give for `COc1c(C)cccc1[C@H](Cc1ccnn1C)c1c[nH]cn1` [Compound 382, 5-[(S)-2-(4-imidazolyl)-2-(2-methoxy-3-tolyl)ethyl]-1-methylpyrazole] here?
Its EC50 is 10 to 50 nM.

Reference: patent publication US20260042769A1, “TRIARYL AGONISTS OF ALPHA-2 ADRENERGIC RECEPTORS” (ALCEPTOR THERAPEUTICS, INC., priority 2023, published 2026)
